These results are taken from US20090304744A1, “METHODS OF ENHANCING IMMUNE RESPONSE IN THE INTRADERMAL COMPARTMENT AND COMPOUNDS USEFUL THEREOF” (priority 2003, published 2009).

Read-outs that look alike come from different tables or passages of the source.

Data set [1] concerns Influenza A/Panama/2007/99 (H3N2). Put plainly: HAI assay after ID microneedle immunization of rats with FLUZONE +/- Tween 80. Format: in vivo, Brown Norway rats. The note with it: for % Seroconversion (HAI Titre ≧ 10) / % Seroprotection (HAI Titre ≧ 40): day 21, Tween 80 at 5% where added. On the procedure:
Measurement of HA specific Antibody Titer by HAI: Sera were collected and used as test samples. Fresh cRBC reagent was prepared daily. Sodium Chloride solution (0.9%) was added to wells of a Falcon® Non-Tissue Culture Treated Plate, 96 well, U-Bottom with Low Evaporation Lid. Viral lysate stock (8 HA/50 μl) was added to wells. Appropriate volume of test serum was added to a single row or column of “start wells,” and a serial dilution was performed by transferring 50 μl of the serum dilution from the “start wells” into the next well, creating a 1:2 dilution. When completed, wells contained a serial serum dilution and a constant amount of viral lysate antigen, being 4 HA per well. cRBC reagent (0.5%, 50 μl) was added to each well, including negative control wells, which contained no HA. The assay was allowed to incubate for 45 minutes at room temperature, ensuring that the plate is not jostled. For determination, plates were tilted at a 70-degree angle for 5 minutes, and viewed on alight box.
HAI assays were performed with A-New Caledonia (H1N1), A-Panama (H3N2) and B-Hong Kong antigen as single test antigens and trivalent pools.
Female Brown Norway (BN) rats (n=10/group) were immunized by ID delivery using Microneedles (34 gauge needle inserted into a 3.5″ long catheter to an exposed needle length of 1.0 mm). ID delivery by Microneedles consisted of 2 bolus injections of 100 μl by hand to either side of the lower back of the rat, approximately 10 seconds in duration (each bolus), using an attached 1 cc syringe. Rats were immunized with either of two different doses of the 2003/2004 season of FLUZONE™ (Aventis Pasteur, Swiftwater, Pa.), for a total of 9µg (high dose) or 0.9µg (low dose) hemagglutinin (HA) per rat, 3µg or 0.3µg HA of each strain of influenza in the vaccine (A/New Calcdonia/20/99 H1N1, A/Panama/2007/99H3N2, and B/Hong Kong/1434/2002).
The rats were bled 21 days after immunization and their serum assayed for neutralizing antibody titres using the hemagglutination inhibition (HAI) assay, and for influenza-specific antibody titres by ELISA. Both assays were performed against the H3N2 strain of influenza in the FLUZONE™ formulation to characterize the immune response.

In another data set the test system is guinea pig skin. Put plainly: Guinea pig erythema Draize scoring after ID delivery of excipients. The format is in vivo, Hartley guinea pigs. Conditions: Tween 80 5%, Deoxycholate 0.1%, D-sorbitol 5%, Lutrol 15%; without antigen, 50 ul per injection, 34 gauge 1.0 mm; immediate, 1 h and 24 h readings. The text has this:
The methods of the invention provide fundamental principles and guidelines whereby optimum parameters may be determined for delivering immunogenic compositions to the dermal compartment (including epidermal and intradermal compartments) wherein the excipients have optimum adjuvant properties and the formulations of the invention have enhanced efficacy in comparison to when the same formulation is delivered using conventional modes of delivery, including intramuscular and subcutaneous delivery. The invention provides methods wherein the formulations of the invention have been screened to have optimum concentration ranges for delivery to the optimum depth of the intradermal compartment such that they have adjuvant properties, resulting in one or more of the following properties: minimal to no skin irritation as determined and assessed using conventional modes of analysis of skin reactions using visual methods such as Draize scoring (For a typical draize scoring analysis see table below); minimal to no hemolysis as determined using standard methods known in the art, and enhanced immune response as measured by enhanced seroconversion and/or enhanced antibody titers.
Erythema Draize scores for various excipients were determined using procedures described in Section 5.4, above. In one study, Tween™ 80 (5%), Deoxycholate (0.1%), D-sorbitol (5%) or Lutrol™ (15%) was administered (50 μl per injection) without the antigen to Hartley guinea pigs using 34 gauge, 1.0 mm needles. […] Deeper administrations will be necessary for deoycholate to be used reliably at this concentration. From left to right, the reading immediately after administration, the one-hour reading and the 24-hour reading.

In the next data set the test system is intradermal tissue. Put plainly: Excipient operating profile: maximum concentration with Draize score of 2 or less vs tissue depth (slope m). The text has this: The preferred excipients of the invention have a common operating profile in the intradermal space defined by a slope (m) value of greater than 0.125. An exemplary profile for determining the optimal operating profile is depicted in FIG. 35. The slope identifies the change in maximum operating concentration as it relates to tissue depth within the intradermal compartment. […] The concentration of excipient at the first reference point is the highest concentration at the shallowest delivery depth that allows a draize score of 2 or less. […] The concentration of excipient at the second reference point is the highest concentration at the deepest delivery depth that allows a draize score of 2 or less. For example, the distance between the first and second delivery depth can be 2 mm apart and specifically 1 mm and 3 mm deliveries. The operating slope (m) can be described by the following formula: […]
Where C2 equals Cinfinity at D2
Where C1 equals maximum excipient concentration at D1 with a Draize score of 2 or less
Where Dn denotes delivery depth
Tween™ 80 matches the preferred excipient profile. FIG. 35 illustrates an excipient selected for the intradermal tissue according to the instant invention. Tween™ 80 has a profile similar to the “Excipient-A” in the illustration having a slope greater than 0.125. Whereby a 5% v/v soln of Tween™ 80 is at the maximum operating concentration at 1.0 mm depth, and can be used successfully at 10% v/v at the 3 mm depth.

Data set [2] relates to Influenza A/Panama/2007/99 (H3N2). The data set can be described thus: Influenza-specific ELISA titre after ID microneedle immunization of rats with FLUZONE +/- Tween 80. The format is in vivo, Brown Norway rats. Conditions: 5% Tween80 added to low or high dose FLUZONE. On the procedure:
Antibody response to FLUZONE™ was measured by coating an influenza antigen (Influenza APR834, purified/inactivated at 2 mg/mL from Charles River SPAFAS or Alternatively New Calcdonia, Panama or B-Hong Kong lysates from Biodesign Inc.) on a microtiter plate (96-well NUNC IMMUNO-PLATE™ with MAXISORP™ surface). The coating solution was approximately 3.8µg/mL of influenza protein in carbonate buffer (Sigma Chemical Co. Cat. C3041). The coating antigen was exposed to the Nunc plate for one hour at 37° C. The coating solution was discarded and replaced with a blocking solution (phosphate buffered saline with Tween™ 20 (PBS-TW20); Sigma Chemical Co. Cat. P-3563) and 5% w/v nonfat dry milk. The blocking solution was exposed to the plate surface for two hours at 37° C. The blocking solution was subsequently discarded.
Female Brown Norway (BN) rats (n=10/group) were immunized by ID delivery using Microneedles (34 gauge needle inserted into a 3.5″ long catheter to an exposed needle length of 1.0 mm). ID delivery by Microneedles consisted of 2 bolus injections of 100 μl by hand to either side of the lower back of the rat, approximately 10 seconds in duration (each bolus), using an attached 1 cc syringe. […]
For orientation: In an ELISA, binding on a coated surface is turned into a signal by an enzyme label.

The subject of data set [3] is trivalent test antigen (New Calcdonia, Panama and B-Hong Kong). Also noted: species or system Hartley Guinea Pigs. The note with it: guinea pig, in vivo.
Data set [4] deals with influenza antigen (Influenza APR834). Format: in vivo, Balb/c mice. The note with it: ID; for Trend in immune response as indicated by ELISA signal (1:123 serum screening dilution): mice.
The test system of the next data set is RBCs. Put plainly: Hemolysis in blood of swine after ID Tween 80. The format is in vivo, Yorkshire swine. The note with it: 6 x 200 ul doses containing 5.0% Tween 80, 31 g x 1.5 mm needle, blood from systemic circulation. The procedure: Tween™ 80 Preferred concentrations avoid hemolysis: Surfactants/detergents can lyse RBCs. Blood from Yorkshire swine that received 6×200 ul doses containing 5.0% Tween™ 80 were collected. No hemolysis was observed was in blood taken immediately from the systemic circulation. A 31 g× 1.5 mm needle was used in the study.

Consider `CCCCCCCC/C=C\CCCCCCCC(=O)OCCOCC(OCCO)C1OCC(OCCO)C1OCCO` (centres unmarked) [Tween 80, polysorbate 80], for which, in data set [1] (5% Tween80 added to low or high dose FLUZONE, ID, rats, H3N2), the “increase of mean HAI titre relative to ID delivery of FLUZONE alone” value is recorded as 5 fold. Further, the “% Seroconversion (HAI Titre ≧ 10)” value in data set [1] (IDHigh (9 ug HA per rat)) and in data set [1] (IDLow (0.9 ug HA per rat)) was 100% throughout. Further, the “% Seroprotection (HAI Titre ≧ 40)” value in data set [1] (IDHigh (9 ug HA per rat)) was determined as 100%; in data set [1] (IDLow (0.9 ug HA per rat)) it was 90%. The “Erythema Draize scores (tolerability)” value is on record as “reasonably well-tolerated” in the data set on guinea pig skin; “reasonably well-tolerated” in the data set with swine skin (Tween 80 5%, Deoxycholate 0.1%, D-sorbitol 5%, Lutrol 15%, without antigen, 200 ul per injection, 31 gauge 1.5 mm, 1 h and 24 h readings). This compound also returned a draize score in the data set with swine skin (2% Tween 80, 3.0 mm delivery, approximately 20-24 hours after administration, Yorkshire swine) of 0.0. In the data set with swine skin (5% Tween 80, swine, 31 g 1.5 mm needle), the “tolerability in the ID space” value is “well tolerated”. For the same compound, the tolerability result with swine skin (10%, delivered to 1-2 mm depth, Yorkshire swine) is “not well tolerated”. For the same compound, the erythema result with swine skin (in vivo) was “moderate to severe erythema”. Moreover, the “skin reactions as a function of needle depth” value in the data set on swine skin (in vivo) is “improved with depth”. In addition, the maximum operating concentration in the data set on intradermal tissue (1.0 mm depth) was determined as 5 % v/v. Besides, the “concentration that can be used successfully” value in the data set on intradermal tissue (3 mm depth) turned out to be 10 % v/v. Besides, the “slope (maximum acceptable conc./tissue depth)” value with intradermal tissue (intradermal tissue, 1.0 mm vs 3 mm depth) is listed as “greater than 0.125”. In addition, the “increase of mean ELISA titre relative to ID delivery of FLUZONE alone” value in data set [2] is “up to 15 fold”. The “hemagglutin specific titer vs FLUZONE alone ID and FLUZONE alone IM” value in data set [3] is “outperformed”. Also, the “immune response compared to commercial trivalent vaccine delivered IM” value in data set [4] (Tween 80 0.9% V/V with trivalent vaccine, 34 g x 1 mm needle, murine model) was “higher mean titers, higher median titers and higher seroconversion”. Besides, the seroconversion in data set [4] (Tween 80 at 5% + FLUZONE, Balb/c mice, ELISA with PR8 test antigen) came to 100%. Further, the “Trend in immune response as indicated by ELISA signal (1:123 serum screening dilution)” value in data set [4] (excipient 0.1% w/v with FLUZONE) was determined as 0.829; in data set [4] (excipient 0.3% w/v with FLUZONE) it was 1.599; in data set [4] (excipient 0.9% w/v with FLUZONE) it was 2.647. For the same compound, the hemolysis entry in the data set with RBCs is “No hemolysis”.
